{"source": "patent US20210371385A1", "about": "“POLYMORPHIC AND AMORPHOUS FORMS OF ISOQUINOLINONE AND METHODS OF USE THEREOF” (Sojournix, Inc., priority 2018, published 2021)", "format_in_all_cases": "physicochemical", "key": {"[1]": {"experiment": "Solubility in water and simulated fluids (FaSSIF, FaSSGF) at 37 °C", "settings": "for Solubility / solubility at 24 h: 37 °C; for Solubility in FaSSIF: fasted state simulated intestinal fluid; for solubility at 24 h: thermodynamic from solid", "from_the_text": "The solids were slurried in the respective solution for 24 hrs then the liquid isolated by syringe filtration for analysis by HPLC. The data are summarized in Table 19; the solubility of all forms in all solutions is on the microgram scale. Essentially, none of these are substantially advantageous over the other ones in terms of equilibrium solubility."}, "[2]": {"experiment": "Stability in high humidity (40 °C/75% RH, XRPD)", "settings": "one week", "method": "Patterns α (L100142-37-5), β (L100142-1-1) and free flowing amorphous solid (L100142-19-1) SJB-01 were exposed to a 40° C./75% RH environment for one week."}, "[3]": {"experiment": "Solid form stability at ambient conditions by XRPD", "settings": "for Solid form stability: ambient conditions / room temperature, XRPD"}, "[4]": {"experiment": "Dynamic vapor sorption (DVS)", "method": "Pattern β was analyzed using DVS with two sorption/desorption cycles. The solid reversibly picked-up about 0.12% between 2-95% relative humidity at 25° C.\nDynamic Vapor Sorption (DVS) was done using a DVS Intrinsic 1. The sample is loaded into a sample pan and suspended from a microbalance. A typical sample mass for DVS measurement is 25 mg. Nitrogen gas bubbled through distilled water provides the desired relative humidity. A typical measurement comprises the steps:\n2. 50% to 2%. (50%, 40%, 30%, 20%, 10% and 2%)-Hold minimum of 5 mins and maximum of 60 minutes at each humidity. The pass criteria is less than 0.002% change.\n3. 2% to 95% (2%, 10%, 20%, 30%, 40%, 50%, 60%, 70%, 80%, 90%, 95%)-Hold minimum of 5 mins and maximum of 60 minutes at each humidity. The pass criteria is less than 0.002% change.\n4. 95% to 2% (95%, 80%, 70%, 60%, 50%, 40%, 30%, 20%, 10%, 2%)-Hold minimum of 5 mins and maximum of 60 minutes at each humidity. The pass criteria is less than 0.002% change.\n5. 2% to 50% (2%, 10%, 20%, 30%, 40%, 50%)-Hold minimum of 5 mins and maximum of 60 minutes at each humidity. The pass criteria is less than 0.002% change."}, "[5]": {"experiment": "Thermodynamic equilibrium aqueous solubility", "settings": "pH 7.4"}, "[6]": {"experiment": "Solubility in vehicles/excipients for in vivo and toxicological studies", "settings": "for Maximum single dose in solubilized form: dogs, 100% PEG 400, maximum volume 1-2 ml/kg; for Maximum dose in solubilized form, 100% PEG 400 / Maximum dose in solubilized form, Gelucire:PEG 400 90:10: rats; for Maximum dose in solubilized form, 100% PEG 400: 5 ml/kg is maximum volume dose; for Maximum dose in solubilized form, Gelucire:PEG 400 90:10: 10 ml/kg is maximum volume dose", "method": "In addition, the solubility of SJB-01 was investigated in a large number of vehicles for use in in vivo pharmacological studies, as well as toxicological evaluation of the compound.\nFormulations for toxicological evaluation of SJB-01 were considered. The highest solubility was obtained with 100% PEG 400 and a mixture of Gelucire and PEG 400. Since a formulation with Gelucire:PEG required increased handling time, including dosing at ˜45° C., 100% PEG 400 was chosen for formulation purpose in the early toxicological evaluation including mini-MTD (maximum tolerated dose) and a 14 days toxicological dosing study. The maximum dose reached was 140 mg/kg-the highest possible dose achievable with PEG 400 as vehicle. […] From a formulation perspective, this can only be done by using Gelucire:PEG as a vehicle, under the assumption that a solution will lead to a higher bioavailability than dosing the compound in a PEG 400 suspension. In the table below, the maximum dose of SJB-01 given on a solubilized form is provided, taking into account the tolerated dose of the vehicle as well."}, "[7]": {"experiment": "Solubility in bio-relevant media", "method": "The solubility of the beta polymorph form of SJB-01 was further examined in bio-relevant media. The fasted-state small intestinal fluid (FaSSIF) contained 3 mM sodium taurocholate (bile acid), 0.75 mM lecithin (phosphorlipid) and phosphate buffer to maintain a pH of 6.0. The fed-state small intestinal fluid (FeSSIF) contained 5-fold higher concentration of sodium taurocholate and lecithin and thus higher capacity for micellar solubilization of the compound. The pH in the FeSSIF buffer was maintained to 5.0 with acetate buffer."}, "[8]": {"experiment": "Intrinsic Dissolution Rate (IDR)", "settings": "0.001 M HCl pH 3.0; pressed tablet", "method": "The Intrinsic Dissolution Rate (IDR) was calculated for a beta polymorph form of SJB-01. A tablet of the compound was pressed and put into a dissolution chamber. It was subsequently measured how fast the substance was dissolved from the surface into the solvent. Initially, the experiment was performed in a standard buffer (0.001 M HCl pH 3.0), reflecting the stomach conditions at fastened state.\nDue to the high impact of bile components on solubilisation of SJB-01, IDR was performed in FeSSIF media, reflecting the fed-state in humans."}, "[9]": {"experiment": "Solubility in buffered solutions vs pH at 37 °C (HPLC)", "settings": "aqueous buffers, aqueous buffer, thermodynamic from solid; about 37 °C; read-out: Solubility in buffered solution (range)", "method": "Aqueous buffers between pH 1.3 and 7.4 (13 total) were prepared and 3 mL added to about 15 mg of SJB-01 (L100149-44-1, jet-milled). These slurries were stirred on a hot-plate at 37° C. for 24 hours. Sonication and vortexting was employed within the first 2 hours of stirring to ensure thorough mixing and wetting of the solids as there was a clear tendency for them to clump and float at the liquid surface. After sonication and vortexing there was substantial solids suspended in solution (slurry) along with the solids that floated on top. At 24 hours, the samples were collected by syringe filtration of about 2 mL of solution. The first 1 mL of solution that passed through the filter was discarded and the second 0.5-1 mL of solution was used for HPLC analysis. The samples were injected into HPLC without dilution.\nSJB-01 (L100149-44-1) was weighed directly into volumetric flasks and filled to volume with ACN:water (6:4 vol.) to build a calibration curve. […] Details for the HPLC method used are given in Table 34; these follow the parameters used for previous dissolution study."}, "[10]": {"settings": "about 37 °C, listed as amorphous form"}, "[11]": {"settings": "about 37 °C, listed as beta form"}}, "note": "“And” between values parts separate entries of the source, which are not always exact repeats. Equal entries are not always repeated. “Also recorded” adds a separate entry of the source."}
{"smiles": "CCNn1c(C)c(C(=O)N[C@H](c2ccccc2)C2CC2)c2cccc(F)c2c1=O", "note": "[Amorphous, 2-ethylamino-8-fluoro-3-methyl-1-oxo-1,2-dihydro-isoquinoline-4-carboxylic acid ((S)-cyclopropyl-phenyl-methyl)-amide]", "values": [{"measurement": "Solubility", "setting": "[1]; FaSSGF, 24 hrs", "result": 6, "unit": "µg/mL"}, {"measurement": "Solubility", "setting": "[1]; FaSSIF, 24 hrs", "result": 18, "unit": "µg/mL"}, {"measurement": "Solubility", "setting": "[1]; Water, 24 hrs", "result": 5, "unit": "µg/mL"}, {"measurement": "Solubility in water and simulated fluids (range)", "setting": "[1]; [10]", "result": "5 to 18", "unit": "µg/mL"}, {"measurement": "Solubility in FaSSGF", "setting": "[1]; fasted state simulated gastric fluid, about 37 °C, listed as amorphous form", "result": 6, "unit": "µg/mL"}, {"measurement": "Solubility in FaSSIF", "setting": "[1]; [10]", "result": 18, "unit": "µg/mL"}, {"measurement": "Solubility in water", "setting": "[1]; water, about 37 °C, listed as amorphous form", "result": 5, "unit": "µg/mL"}, {"measurement": "Solid form by XRPD after humidity exposure", "setting": "[2]; listed as amorphous solid", "result": "converted considerably to Pattern β"}, {"measurement": "Solid form stability", "setting": "[3]; listed as powdered amorphous freebase", "result": "still showed an amorphous pattern"}, {"measurement": "Time amorphous form remained stable", "setting": "[3]; ambient environment", "result": "at least 17 days"}]}
{"smiles": "CCNn1c(C)c(C(=O)N[C@H](c2ccccc2)C2CC2)c2cccc(F)c2c1=O", "note": "[Pattern α, 2-ethylamino-8-fluoro-3-methyl-1-oxo-1,2-dihydro-isoquinoline-4-carboxylic acid ((S)-cyclopropyl-phenyl-methyl)-amide]", "values": [{"measurement": "Moisture pick-up by DVS", "setting": "[4]; 2-95% relative humidity, 25 °C", "result": "about 0.6%"}, {"measurement": "Solubility", "setting": "[1]; FaSSGF, 24 hrs", "result": 7, "unit": "µg/mL"}, {"measurement": "solubility at 24 h", "setting": "[1]; FaSSGF, fassgf or other biorelevant, fasted state simulated gastric fluid, about 37 °C, read-out: Solubility in FaSSGF", "result": 7, "unit": "µg/mL"}, {"measurement": "Solubility", "setting": "[1]; FaSSIF, 24 hrs", "result": 8, "unit": "µg/mL"}, {"measurement": "Solubility in FaSSIF", "setting": "[1]; about 37 °C, listed as alpha form", "result": 8, "unit": "µg/mL"}, {"measurement": "solubility at 24 h", "setting": "[1]; water, water, water, about 37 °C, read-out: Solubility in water", "result": 6, "unit": "µg/mL"}, {"measurement": "solubility at 24 h", "setting": "[1]; water, FaSSIF and FaSSGF, about 37 °C, read-out: Solubility in water and simulated fluids (range)", "result": "6 to 8", "unit": "µg/mL"}, {"measurement": "Solid form by XRPD after humidity exposure", "setting": "[2]", "result": "converted considerably to Pattern β"}, {"measurement": "Solid form stability", "setting": "[3]", "result": "not stable; also recorded: less stable than Pattern β"}, {"measurement": "solubility thermodynamic", "setting": "[5]; aqueous medium, aqueous buffer, thermodynamic from solid", "result": "~14", "unit": "µg/mL"}, {"measurement": "Solubility in 100% PEG 400", "setting": "[6]", "result": 32, "unit": "mg base/ml"}, {"measurement": "Solubility in Gelucire:PEG 400 90:10", "setting": "[6]", "result": 40, "unit": "mg base/ml"}, {"measurement": "Maximum single dose in solubilized form", "setting": "[6]; listed as α-form", "result": "28 to 56", "unit": "mg/kg"}, {"measurement": "Maximum dose in solubilized form, 100% PEG 400", "setting": "[6]; listed as α-form", "result": 140, "unit": "mg/kg"}, {"measurement": "Maximum dose in solubilized form, Gelucire:PEG 400 90:10", "setting": "[6]; listed as α-form", "result": 360, "unit": "mg/kg"}]}
{"smiles": "CCNn1c(C)c(C(=O)N[C@H](c2ccccc2)C2CC2)c2cccc(F)c2c1=O", "note": "[Pattern β, 2-ethylamino-8-fluoro-3-methyl-1-oxo-1,2-dihydro-isoquinoline-4-carboxylic acid ((S)-cyclopropyl-phenyl-methyl)-amide]", "values": [{"measurement": "Hygroscopicity", "setting": "[4]; DVS, two sorption/desorption cycles", "result": "not hygroscopic"}, {"measurement": "solubility at 24 h", "setting": "[1]; FaSSGF (fasted state simulated gastric fluid), fassgf or other biorelevant, FaSSGF, 24 hrs, read-out: Solubility", "result": 6, "unit": "µg/mL"}, {"measurement": "Solubility", "setting": "[1]; FaSSIF, 24 hrs", "result": 8, "unit": "µg/mL"}, {"measurement": "Solubility in water and simulated fluids (range)", "setting": "[1]; [11]", "result": "5 to 8 µg/mL and 6 to 10 µg/mL"}, {"measurement": "Solubility in FaSSIF", "setting": "[1]; [11]", "result": 8, "unit": "µg/mL"}, {"measurement": "solubility at 24 h", "setting": "[1]; water, water, Water, 24 hrs, read-out: Solubility", "result": 5, "unit": "µg/mL"}, {"measurement": "Solid form by XRPD after humidity exposure", "setting": "[2]", "result": "remained unchanged"}, {"measurement": "Solid form stability", "setting": "[3]", "result": "most stable polymorph"}, {"measurement": "Thermodynamic equilibrium solubility", "setting": "[5]", "result": "~8", "unit": "μg base/ml"}, {"measurement": "Solubility in 100% PEG 400", "setting": "[6]", "result": 22, "unit": "mg base/ml"}, {"measurement": "Solubility in Gelucire:PEG 400 90:10", "setting": "[6]", "result": 26, "unit": "mg base/ml"}, {"measurement": "Maximum single dose in solubilized form", "setting": "[6]; listed as β-form", "result": "20 to 40", "unit": "mg/kg"}, {"measurement": "Maximum dose in solubilized form, 100% PEG 400", "setting": "[6]; listed as β-form", "result": 100, "unit": "mg/kg"}, {"measurement": "Maximum dose in solubilized form, Gelucire:PEG 400 90:10", "setting": "[6]; listed as β-form", "result": 230, "unit": "mg/kg"}, {"measurement": "Solubility in bio-relevant media", "setting": "[7]; 0.001M HCl pH 3.0", "result": 8, "unit": "μg base/ml"}, {"measurement": "Solubility in bio-relevant media", "setting": "[7]; FaSSIF, pH 6.0", "result": 11, "unit": "μg base/ml"}, {"measurement": "Solubility in bio-relevant media", "setting": "[7]; FeSSIF, pH 5.0", "result": 19, "unit": "μg base/ml"}, {"measurement": "Intrinsic Dissolution Rate (IDR)", "setting": "[8]", "result": 0.002, "unit": "mg/cm^2·min"}, {"measurement": "solubility at 24 h", "setting": "[9]", "result": "6.4 to 9.8", "unit": "µg/mL"}]}
